Consider 1 compound from paper PMC7392643, “Antibiotic fidaxomicin is an RdRp inhibitor as a potential new therapeutic agent against Zika virus” (BMC Medicine, 2020).

In one experiment the target is T1, ZIKV RdRp protein (Zika virus, UniProt A0A024B7W1).
T1 construct: RdRp (amino acids 272 to 903); His tag (8x histidine) (N); made in house; host or cells: Escherichia coli (Rosetta)
Description: SPR (BIAcore) binding to ZIKV RdRp protein. On the procedure:
The cDNA fragment of ZIKV (ZG-01 strain) NS5 (amino acids 1 to 903), RdRp (amino acids 272 to 903), or DENV2 NS5 (amino acids 1 to 900) containing an N-terminal His tag sequence was cloned into a pET-30a-mutant vector. For protein expression, the plasmids were transformed into Rosetta™ competent cells (TIANGEN BIOTECH Co., Ltd., Beijing, China), respectively. […] Mass spectrometry was performed by Shanghai Applied Protein Technology Co. Ltd. (Shanghai, China). The concentration of a targeted protein was measured by SDS-PAGE using BSA (Sigma, St. Louis, MO) as a standard.
Surface plasmon resonance (SPR) experiments were performed in a BIAcore T100 device (BIAcore Inc., Uppsala, Sweden) using CM5 sensor chips (General Electric Company, GE) according to the protocol provided by the manufacturer. Briefly, recombinant ZIKV NS5 protein, RdRp protein, or DENV2 NS5 protein was immobilized on a CM5 chip, respectively. Different concentrations of fidaxomicin or ribavirin were injected at a flow rate of 30 μL/min for 3 min. Subsequently, data were collected for a 3-min association followed by a 20-min dissociation. The chip was regenerated by injecting 10 μL of 15 mM NaOH for 20 s. All procedures were run in 1% DMSO PBS-P20 (GE) as a running buffer. The binding kinetics was analyzed with the software BIAevaluation version 3.1 using a 1:1 Langmuir binding model. The Kd was calculated as previously described.

Another experiment relates to ZIKV MR766 strain. Description: In vitro antiviral assay, plaque assay, ZIKV MR766. It is filed as cell-based. As to conditions: Zika virus, 48 h.
In another experiment the test system is ZIKV (ZG-01 strain). Description: Antiviral efficacy in ZIKV-infected Ifnar1-/- mice, i.v. dosing. Type of experiment: in vivo. As to conditions: for Median survival: vehicle 8.5 days. On the procedure: RNA from cell supernatants or from mouse tissues (brain and testis) was prepared with RaPure Viral RNA/DNA Kit (Magen, Guangzhou, China) according to the manufacturer’s instructions. The first-strand cDNA was synthesized using random hexamer primers with the Revert Aid Reverse Transcription Kit (Thermo Fisher Scientific, Rockford, IL, USA), and real-time PCR was carried out by using LightCycler® 480 Probes Master (2× reaction mix buffer including DNA polymerase) (no. 04887301001, Roche, Basel, Switzerland). Virus concentration was determined by interpolation onto an internal standard curve made up of a 7-point dilution series of in vitro transcribed RNA and tissue weight to quantify ZIKV RNA as copies/gram tissue. Primer sets used for real-time PCR are shown in Additional file 1: Table S1. Reverse transcription and real-time PCR were performed for at least three times.
For ZIKV infection and antiviral treatment studies, mice were randomly assigned to groups (n = 12–13/group). Male and female 5-week-old Ifnar1^−/− mice were infected subcutaneously (s.c.) with ZIKV (ZG-01 strain, 2 × 10^4 PFU for each mouse) 1 h before administration of treatment agents. Compounds were prepared in sterile pharmaceutical dosage form of 1:10:89 (DMSO : Tween80 : 5% glucose solution) less than 4 h prior to administration in mice. Fidaxomicin was administered by tail vein injection daily at 20 or 10 mg/kg for 7 days. The identity of the treatment groups was blinded to the researcher administering treatments. Survival, disease signs, and the weight of each mouse were recorded on day 0 and then every other day from 1 to 15 days post-infection (dpi). Mice were humanely euthanized if they could no longer right themselves or were unresponsive to stimuli. Tissues, including the brains and testes, were collected from each animal. Part of each tissue was fixed in 4% paraformaldehyde or in PBS for at least 24 h prior to paraffin embedding and sectioning for use in immunohistochemistry analysis, immunofluorescence analysis, or analysis of viral RNA. Total RNA was extracted from tissues, and ZIKV RNA was quantified as described above.
Immunofluorescence assay was carried out on paraffin-embedded mouse brain and testis tissue slides, incubated with an anti-ZIKV E antibody (1:500, BioFront Technologies, Tallahassee, FL, USA). The secondary antibody was Rhodamine Red™-X (RRX) AffiniPure F (ab')2 Fragment Goat Anti-Mouse IgG (1:500, AB_2338781, Jackson ImmunoResearch Laboratories, Inc. West Grove, PA, USA), and 4-,6-diamidino-2-phenylindole (DAPI, 1:1000, Sangon Biotech, Shanghai, China) was used to stain the nuclei. The immunofluorescent images were taken with an inverted microscope (Carl Zeiss, Oberkochen, Germany). For histologic staining, the fixed tissues were dehydrated, embedded in paraffin, sectioned, rehydrated, and stained with hematoxylin and eosin (H/E). The H/E-stained sections were evaluated for viral-induced neuropathology. […] histological examination was performed by a board-certified veterinary pathologist. Each slide was auto scanned by Axio Scan Z1 (Carl Zeiss, Oberkochen, Germany).

T1 sequence (A0A024B7W1 2792-3423): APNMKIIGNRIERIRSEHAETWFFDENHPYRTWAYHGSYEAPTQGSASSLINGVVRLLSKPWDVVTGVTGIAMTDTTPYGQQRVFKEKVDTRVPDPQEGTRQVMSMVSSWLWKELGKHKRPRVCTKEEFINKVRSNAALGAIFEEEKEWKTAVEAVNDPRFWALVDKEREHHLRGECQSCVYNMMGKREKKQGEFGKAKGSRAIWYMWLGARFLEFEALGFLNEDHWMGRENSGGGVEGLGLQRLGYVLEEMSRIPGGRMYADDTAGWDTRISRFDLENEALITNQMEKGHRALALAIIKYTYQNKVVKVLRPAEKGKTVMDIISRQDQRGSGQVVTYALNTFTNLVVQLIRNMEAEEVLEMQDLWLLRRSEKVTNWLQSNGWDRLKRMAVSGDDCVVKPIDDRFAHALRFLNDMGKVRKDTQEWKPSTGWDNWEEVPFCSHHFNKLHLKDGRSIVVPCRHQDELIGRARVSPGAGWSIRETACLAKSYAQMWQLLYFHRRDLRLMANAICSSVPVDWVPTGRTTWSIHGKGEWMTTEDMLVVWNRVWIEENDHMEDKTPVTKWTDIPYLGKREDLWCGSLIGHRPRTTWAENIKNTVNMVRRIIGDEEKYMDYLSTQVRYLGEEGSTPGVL
Description for ZIKV MR766 strain: Various cell lines, including SNB19 (6 × 10^4/well, 10% FBS DMEM), A172 (7 × 10^4/well, 10% FBS DMEM), Vero (6 × 10^4/well 10% FBS DMEM), Huh7 (7 × 10^4/well, 10% FBS DMEM), HUVECs (7 × 10^4/well, 15% FBS M199 medium supplemented with 2 mM L-glutamine, 0.02 mg/mL endothelial cell growth supplement, and 0.05 mg/mL heparin), and A549 (6 × 10^4/well, 5% FBS DMEM), were plated in 12-well plates and allowed to attach overnight, followed by infection with ZIKV (ZG-01 strain or MR766 strain, respectively, at indicated MOI) in the presence of different concentrations of fidaxomicin, ribavirin, or vehicle control for 1 h, followed by two washes with 1 × PBS and incubated with fresh medium (without virus) consisting of corresponding concentrations of the compounds for further 48 h. The cell supernatants were collected to quantify ZIKV infection by plaque assay as previously described [47] or by RT-qPCR.

For the compound `CCc1c(Cl)c(O)c(Cl)c(O)c1C(=O)O[C@H]1[C@H](O)[C@H](OC)[C@H](OC/C2=C\C=C\C[C@H](O)/C(C)=C/[C@H](CC)[C@@H](O[C@@H]3OC(C)(C)[C@@H](OC(=O)C(C)C)[C@H](O)[C@@H]3O)/C(C)=C/C(C)=C/C[C@@H]([C@@H](C)O)OC2=O)O[C@@H]1C` [Fidaxomicin], the affinity on ZIKV RdRp protein, expressed as Kd, was 23.2 µM. Also, the “binding to ZIKV RdRp protein (SPR)” value at ZIKV RdRp protein (qualitative) was “strong, clear binding”. Besides, the EC50 in the experiment with ZIKV MR766 strain (A549 cells) was 13 ± 4.4 µM; in the experiment with ZIKV MR766 strain (Huh-7, Huh7 cells), 7.3 ± 2.5 µM; in the experiment on ZIKV MR766 strain (SNB-19, SNB19 cells), 6.8 ± 1.2 µM; in the experiment with ZIKV MR766 strain (Vero cells), 12.4 ± 3 µM. Further, the EC90 with ZIKV MR766 strain (A549 cells) came out at 42.2 ± 4.6 µM; in the experiment on ZIKV MR766 strain (Huh-7, Huh7 cells), 16.2 ± 3.9 µM; in the experiment with ZIKV MR766 strain (SNB-19, SNB19 cells), 9.5 ± 1.5 µM; in the experiment with ZIKV MR766 strain (Vero cells), 45.2 ± 6.2 µM. For the same compound, the figures for the Median survival with ZIKV (ZG-01 strain) (10 mg/kg i.v. daily for 7 days) and with ZIKV (ZG-01 strain) (20 mg/kg i.v. daily for 7 days) were 14 days and “over 15 days”, respectively. Moreover, the body weight loss entry with ZIKV (ZG-01 strain) (20 mg/kg/day, between 8 and 15 dpi, vs vehicle) is given as “obvious protection from weight loss”. Also, in the experiment with ZIKV (ZG-01 strain) (10 and 20 mg/kg vs vehicle), the “ZIKV load in the brains and testes (immunostaining of ZIKV E)” value is “reduced”. For the same compound, the “viral RNA levels in the brain and testis” value with ZIKV (ZG-01 strain) (15 dpi, 10 and 20 mg/kg groups, RT-qPCR) was “significantly decreased”. In addition, the “neuronal necrosis in hippocampal pyramidal cells” value in the experiment on ZIKV (ZG-01 strain) (H/E staining) is listed as “remarkably reduced”. Further, in the experiment with ZIKV (ZG-01 strain) (both treatment groups vs vehicle, H/E staining), the “pathologic damages in the cerebra” value is “remarkably alleviated”. Moreover, the “number of neurological signs (paralysis, hunching)” value with ZIKV (ZG-01 strain) (both treatment groups, dose-dependent) was “progressive decrease”. The “perivascular cuffing of vessels in cerebra” value with ZIKV (ZG-01 strain) (both treatment groups, p = 0.0090 and p < 0.0001) is “significant decrease”. The “mice protected from mortality” value in the experiment with ZIKV (ZG-01 strain) (high-dose group (20 mg/kg i.v. daily for 7 days)) is “nine out of 13”. Also, the “effective therapeutic doses against ZIKV” value in the experiment on ZIKV (ZG-01 strain) (mice, i.v.) is 10 to 20 mg/kg. In addition, the “ZIKV E protein in brain and testis tissues (western blotting)” value in the experiment on ZIKV (ZG-01 strain) (vs vehicle control) is “significant suppressive effect”.
